The values below come from patent publication US11865158B2, “Process and composition matter of nanoparticle formulation for systemic treatment of sepsis” (PURDUE RESEARCH FOUNDATION, priority 2019, dated 2024).

Values after ≈ are worked out from the molar mass of the structure shown.

Holding throughout (test): Minimum inhibitory concentration, broth microdilution
What all share (format): cell-based
On the technique in general: Broth dilution looks for growth in wells or tubes with falling amounts of substance.

Experiment [1] relates to Escherichia coli ATCC 2469. From the text: (§1) Bacterial cell lines and reagents. Escherichia coli ATCC 2452 (NDM-1, isolated in Pakistan) was New Delhi metallo-beta-lactamase (NDM-1) positive, blaNDM positive by PCR, and carbepenem-resistant (Imipenem and Ertapenem). Escherichia coli ATCC 2469 (1001728, isolated from human urine) was New Delhi metallo-beta-lactamase (NDM-1) positive, blaKPC negative and blaNDM positive by PCR, and Carbepenem-resistant (Imipenem and Ertapenem). Klebsiella pneumoniae (NR-41920, isolated in 2008 from human blood culture in Boston, Massachusetts, USA) was Carbapenem-resistant strain, blaKPC-3 positive by PCR, and resistant to amikacin, ampicillin/sulbactam, cefazolin, cefepime, ceftazidime, ceftriaxone, cefuroxime, ciprofloxacin, gentamicin, meropenem, piperacillin/tazobactam, tobramicin and trimethoprim/sulfamethoxazole. Pseudomonas aeruginosa (NR-50573, isolated in early 1970s from the blood of a burn patient at Mercy Hospital in Pittsburgh, Pennsylvania, USA) was resistant to rifampicin and susceptible to meropenem, ofloxacin, ceftazidime, amikacin, and tobramycin. 0.5 McFarland standard was purchased from ThermoFisher scientific (Waltham, MA, USA). Mueller-Hinton broth and tryptone soy agar plates were purchased from Becton, Dickinson and company (Franklin Lakes, New Jersey, USA).
(§2) Antimicrobial activities The minimum inhibitory concentrations (MICs) of the control antibiotics (gentamicin and imipenem), PMB, D-TZP and TZP against Escherichia coli, Klebsiella pneumoniae and Pseudomonas aeruginosa strains were determined by the broth microdilution method, according to guidelines outlined by the Clinical and Laboratory Standards Institute (CLSI)^18. The bacterial stains were grown aerobically overnight on tryptone soy agar plates at 37° C. Afterwards, a bacterial solution equivalent to 0.5 McFarland standard was prepared and diluted in cation-adjusted Mueller-Hinton broth (CAMHB) to achieve a bacterial concentration of ˜5×10^5 CFU/mL. The treatments were added in the first row of the 96-well plates and serially diluted with media containing bacteria. Plates were incubated aerobically at 37° C. for 16-18 hours.

Experiment [2] relates to Escherichia coli ATCC 2452.
Source text: as §1, §2

Experiment [3] relates to Pseudomonas aeruginosa NR-50573.
Source text: as §1, §2

Experiment [4] has as its system Klebsiella pneumoniae NR-41920.
Source text: as §1, §2

Broadly, the MIC is the smallest concentration in the dilution series that meets the test's criterion for growth inhibition. A lower MIC goes with greater potency. For `C[C@@H](O)[C@H]1C(=O)N2C(C(=O)O)=C(SCCN=CN)C[C@H]12` [Imipenem, imipenem], the MIC turned out to be 16 µg/mL (≈ 53.4 µM) in experiment [1] (ATCC2469), 16 µg/mL (≈ 53.4 µM) in experiment [2] (ATCC2452), 1 µg/mL (≈ 3.34 µM) in experiment [3] (NR50573) and 8 µg/mL (≈ 26.7 µM) in experiment [4] (NR41920).

On to gentamicin, for which the “Minimum inhibitory concentration (MIC)” value in experiment [1] was greater than 64 µg/mL; in experiment [2], greater than 64 µg/mL; in experiment [3], 1 µg/mL; in experiment [4] it was 64 µg/mL.
